SMILES strings stand for the structures.

This test deals with Dopamine receptor (Rattus norvegicus) (UniProt P25115+P19020+P30729+P18901+P61169). The experiment in a line: ED50 for induction of contralateral turning behavior in 6-hydroxydopamine (6-OHDA) lesioned rats by ip administration. The format is functional, organism-based.

In the case of `CCN1CCOC2c3ccccc3CC[C@H]21` (some centres not stated), the ED50 (as a rule, the dose at which the effect has come halfway, by size or by number of responders) came to 1.7 mg/kg.

Molecule `c1ccc2c(c1)CC[C@H]1NCCOC21` (some centres not stated) registered an ED50 of 30 mg/kg.

The record behind these values is ChEMBL document CHEMBL1122534, “Synthesis of 4-substituted 2H-naphth[1,2-b]-1,4-oxazines, a new class of dopamine agonists” (J Med Chem, 1984).
